Patent US20220235006A1, “PYRIDINE DERIVATIVES AS TMEM16A MODULATORS FOR USE IN THE TREATMENT OF RESPIRATORY CONDITIONS” (TMEM16A LIMITED, priority 2019, published 2022)
In brackets after ≈: the same amount, converted by molar mass.

Columns and labels:
[1] = Kinetic solubility determination (high throughput); assay type: physicochemical; conditions: kinetic from dmso stock, sterile water, 5% DMSO, room temperature
Experimental: Test compounds (10 μL; 20 mM DMSO solution) were added to sterile water (190 μL) in triplicate and shaken at 300 rpm at room temperature. After 90 min. the test compounds were filtered by centrifuge (5 min. at 3000 rpm) to obtain the aqueous filtrate. Acetonitrile (20 μL) was dispensed into clean 96-well UV/VIS analysis plate and aqueous filtrate (80 μL) added and the plate analysed for test compound concentration using a Molecular Devices SPECTRAmax® plus microplate reader at the following wavelengths: (280, 300, 320, 340, 360, 800 nm). […] The diluted filtrate (80 μL) was then added to acetonitrile (20 μL) and the plate analysed. as previously.

[2] = target: T1, human TMEM16A (TMEM16Aabc variant) (Homo sapiens, UniProt Q5XXA6, DEL476-501); assay: Automated whole-cell patch clamp (Qpatch) TMEM16A potentiator assay in recombinant FRT cells; assay type: cell-based; conditions: for activation at 3.33 µM: percentage increase of baseline TMEM16A current, minimum n = 2, read-out: % Potentiation @ 3.33 uM Avg; for EC50: minimum n = 2
T1 sequence (Q5XXA6 with tags, fused parts or gaps isoform Q5XXA6-5 DEL539-564): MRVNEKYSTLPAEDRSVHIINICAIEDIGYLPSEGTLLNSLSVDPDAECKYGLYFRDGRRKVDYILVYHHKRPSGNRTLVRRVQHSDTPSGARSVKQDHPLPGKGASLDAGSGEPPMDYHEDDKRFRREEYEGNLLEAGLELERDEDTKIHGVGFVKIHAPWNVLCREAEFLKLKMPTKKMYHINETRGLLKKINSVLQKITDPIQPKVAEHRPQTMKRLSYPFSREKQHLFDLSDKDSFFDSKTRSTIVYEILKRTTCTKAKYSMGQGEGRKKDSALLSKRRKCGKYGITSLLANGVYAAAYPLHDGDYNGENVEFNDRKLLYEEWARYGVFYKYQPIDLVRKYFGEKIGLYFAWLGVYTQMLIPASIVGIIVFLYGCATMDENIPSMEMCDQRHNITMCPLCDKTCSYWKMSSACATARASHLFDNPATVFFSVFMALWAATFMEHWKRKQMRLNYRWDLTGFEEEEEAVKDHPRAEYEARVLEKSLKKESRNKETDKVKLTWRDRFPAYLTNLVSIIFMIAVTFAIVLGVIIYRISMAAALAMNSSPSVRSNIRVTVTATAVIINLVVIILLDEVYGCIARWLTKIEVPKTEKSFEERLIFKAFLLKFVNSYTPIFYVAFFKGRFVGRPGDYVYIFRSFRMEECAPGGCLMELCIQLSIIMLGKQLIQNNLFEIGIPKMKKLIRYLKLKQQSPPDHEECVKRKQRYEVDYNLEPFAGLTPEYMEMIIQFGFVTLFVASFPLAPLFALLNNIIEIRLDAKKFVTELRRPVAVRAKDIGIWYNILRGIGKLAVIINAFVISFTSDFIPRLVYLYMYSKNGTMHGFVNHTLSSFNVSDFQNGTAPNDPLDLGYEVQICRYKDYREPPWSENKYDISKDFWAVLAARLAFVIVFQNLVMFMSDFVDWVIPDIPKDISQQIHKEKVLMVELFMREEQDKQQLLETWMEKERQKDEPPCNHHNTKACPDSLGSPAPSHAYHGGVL
Experimental: Automated Whole-Cell Patch Clamp Assay to Detect TMEM16A Activity in Recombinant Cells
Fisher rat thyroid (FRT) cells stably expressing human TMEM16A (TMEM16Aabc variant; Dr Luis Galietta, Insituto Giannina, Italy) were cultured in T-75 flasks in Hams F-12 media with Coon's modification (Sigma) supplemented with 10% (v/v) foetal bovine serum, penicillin-streptomycin (10,000 U/mL/10000 μg/mL), G-418 (750 μg/mL), L-glutamine (2 mM) and sodium bicarbonate solution (7.5% v/v). At ˜90% confluence cells were harvested for experiments by detachment with a 2:1 (v/v) mixture of Detachin (BMS Biotechnology) and 0.25% (w/v) trypsin-EDTA.
FRT-TMEM16A cells were whole-cell patch clamped using an automated planar patch clamp system (Qpatch, Sophion). Briefly, once high resistance (GOhm) seals were established between the cells and the planar recording array the patch was ruptured using suction pulses to establish the whole-cell recording configuration of the patch clamp technique. The assay employed the following solutions (all reagents Sigma): Intracellular solution (mM): N-methyl-D-glucamine 130, CaCl2 18.2, MgCl2 1, HEPES 10, EGTA 10, BAPTA 20, Mg-ATP 2, pH 7.25, 325 mOsm with sucrose.
Extracellular solution (mM): N-methyl-D-glucamine 130, CaCl2 2, MgCl2 1, HEPES 10, pH 7.3, 320 mOsm with sucrose.
The intracellular solution buffers intracellular calcium at levels required to give ˜20% activation of the maximal TMEM16A mediated current (E020 for calcium ions). Cells were voltage clamped at a holding potential of −70mV and a combined voltage step (to +70 mV)/ramp (−90 my to +90 mV) was applied at 0.05 Hz. After a period of current stabilisation test compounds, solubilised in 100% (v/v) DMSO and subsequently diluted into extracellular solution, were applied to generate a cumulative concentration response curve. Each concentration of test compound was incubated for 5 minutes before addition of the next concentration. After the final concentration was tested a supramaximal concentration of either a known active positive modulator or the TMEM16A inhibitor, CaCCinhA01 (Del La Fuente et al, 2008) was added to define the upper and lower limits of the assay.
Compound activity was quantified by measuring the increase in current upon compound addition and expressing this as a percentage increase of baseline TMEM16A current level.
Peak TMEM16A current at +70 mV was plotted as a function of time over the assay period. Baseline current (IBL) was measured after a period of stabilisation. The increase in current for each compound addition was determined by taking the peak current during the incubation period and subtracting the current from the previous recording period and then expressing this as a percentage of the baseline current (% potentiation). For test compound concentration 1 in FIG. 1 this is:
For each additional concentration tested the increase in current was determined by subtracting the current from the previous incubation period and normalising the baseline value—for test concentration 2 in FIG. 1 this is:
The values for each test concentration were plotted as a cumulative function of concentration eg. for test concentration two this would be the sum of the peak changes measured during concentration one plus concentration two.

[3] = Log D (pH7.4 shake flask); assay type: physicochemical; conditions: pH 7.4; 1-octanol/phosphate buffer shake flask; read-out: mLogD (pH 7.4)
Experimental: Phosphate buffer (1 M) was diluted to 20 mM with deionised water and adjusted to pH 7.4 with phosphoric acid or sodium hydroxide. 1-octanol and phosphate buffer (20 mM) were saturated overnight by tumbling. The two phases were separated using a separation funnel. 5 μL of 5 mM compound cassette was added to 495 μL of octanol-saturated buffer and 495 μL buffer saturated octanol in a 96-well plate (top concentration 50 μM). Plate was shaken for 1 h and centrifuged at 25° C. for 5 min. 200 μL of each phase was transferred to a separate plate. The octanol layer was sampled first to avoid cross contamination. 5 μL of the solutions were transferred to 495 μL of quench solution* (max concentration 0.5 μM). In addition, 40 μL of buffer solution was added to 360 μL of quench solvent (max concentration 5 μM). Samples were analysed by LC-MS/MS. Benchmarking against a calibration curve for each compound and with reference to the control compounds sulpride, diclofenac, chlorpromazine and tamoxifen. *Quench solution was a 1:3:1 mixture (v/v/v) of Acetonitrile containing 0.1% formic acid and imipramine/labetalol, 200 nM:Acetonitrile:Water.

solubility kinetic at 90 min [1] [µg/mL]	activation at 3.33 µM [2] [%]	EC50 [2] [nM]	logD [3]	Structure (SMILES)
99 (≈ 206 µM)	122	27	–	CC(C)(C#N)NC(=O)c1cc(NC(=O)Cc2cc(O)c(C3(C(F)(F)F)CCO3)cc2F)ccn1 (centres unmarked) [Example 2.14, N-(1-Cyano-1-methyl-ethyl)-4-[[2-[2-fluoro-5-hydroxy-4-[2-(trifluoromethyl)oxetan-2-yl]phenyl]acetyl]amino]pyridine-2-carboxamide]
164 (≈ 350 µM)	309	219	3	CC(C)(C#N)NC(=O)c1cc(NC(=O)Cc2cc(O)c(C(C)(O)C(F)(F)F)cc2F)ccn1 (centres unmarked) [Example 2.7, N-(1-Cyano-1-methyl-ethyl)-4-[[2-[2-fluoro-5-hydroxy-4-(2,2,2-trifluoro-1-hydroxy-1-methyl-ethyl)phenyl]acetyl]amino]pyridine-2-carboxamide]
–	434	30	4.2	O=C(Cc1cc(O)c(C2(C(F)(F)F)CCO2)cc1F)Nc1ccnc(C(=O)NC2(C(F)(F)F)CC2)c1 (centres unmarked) [Example 2.10, 4-[[2-[2-Fluoro-5-hydroxy-4-[2-(trifluoromethyl)oxetan-2-yl]phenyl]acetyl]amino]-N-[1-(trifluoromethyl)cyclopropyl]pyridine-2-carboxamide]
–	342	214	–	CC(C)(CO)c1cc(F)c(CC(=O)Nc2ccnc(C(=O)NC3(CO)CCC3)c2)cc1O [Example 12.4, 4-[[2-[2-Fluoro-5-hydroxy-4-(2-hydroxy-1,1-dimethyl-ethyl)phenyl]acetyl]amino]-N-[1-(hydroxymethyl)cyclobutyl]pyridine-2-carboxamide]
–	295	115	–	CC(C)(C#N)NC(=O)c1cc(NC(=O)Cc2cc(O)c(C(C)(C)CO)cc2F)ccn1 [Example 16.2, N-(1-Cyano-1-methyl-ethyl)-4-[[2-[2-fluoro-5-hydroxy-4-(2-hydroxy-1,1-dimethyl-ethyl)phenyl]acetyl]amino]pyridine-2-carboxamide]
–	356	69	3.7	CC(C)(C)NC(=O)c1cc(NC(=O)Cc2cc(O)c(C3(C#N)CC3)cc2F)ccn1 [Example 2.4, N-tert-Butyl-4-[[2-[4-(1-cyanocyclopropyl)-2-fluoro-5-hydroxy-phenyl]acetyl]amino]pyridine-2-carboxamide]

The remaining lines, values behind:

Structure (SMILES)	solubility kinetic at 90 min [1] [µg/mL]	activation at 3.33 µM [2] [%]	EC50 [2] [nM]	logD [3]
CC(C)(C#N)NC(=O)c1cc(NC(=O)Cc2cc(O)c(C(C)(C)C)cc2Cl)ccn1 [Example 10, 4-[[2-(4-tert-Butyl-2-chloro-5-hydroxy-phenyl)acetyl]amino]-N-(1-cyano-1-methyl-ethyl)pyridine-2-carboxamide]	–	310	52	> 4
CC1(NC(=O)c2cc(NC(=O)Cc3cc(O)c(C(C)(C)C)cc3F)ccn2)CC1 [Example 1, 4-[[2-(4-tert-Butyl-2-fluoro-5-hydroxy-phenyl)acetyl]amino]-N-(1-methylcyclopropyl)pyridine-2-carboxamide]	–	248	38	> 4.2
CC(C)(C#N)NC(=O)c1cc(NC(=O)Cc2cc(O)c(C(C)(C)C)cc2F)ccn1 [Example 1.4]	–	200	37	> 4.1
CC(C)(C)c1cc(F)c(CC(=O)Nc2ccnc(C(=O)NC3(C(F)(F)F)CC3)c2)cc1O [Example 1.7]	–	202	25	> 4
CC(C)(C#N)NC(=O)c1cc(NC(=O)Cc2cc(O)c(C(C)(C)C)cc2F)c(F)cn1 [Example 3, 4-[[2-(4-tert-Butyl-2-fluoro-5-hydroxy-phenyl)acetyl]amino]-N-(1-cyano-1-methyl-ethyl)-5-fluoro-pyridine-2-carboxamide]	–	353	132	3.9
CC1(NC(=O)c2cc(NC(=O)Cc3cc(O)c(C(C)(C)CO)cc3F)ccn2)CC(F)(F)C1 [Example 15, N-(3,3-Difluoro-1-methyl-cyclobutyl)-4-[[2-[2-fluoro-5-hydroxy-4-(2-hydroxy-1,1-dimethyl-ethyl)phenyl]acetyl]amino]pyridine-2-carboxamide]	–	113	14	–
CC(C)(O)c1cc(Cl)c(CC(=O)Nc2ccnc(C(=O)NC3(C(F)(F)F)CC3)c2)cc1O [Example 19, 4-[[2-[2-Chloro-5-hydroxy-4-(1-hydroxy-1-methyl-ethyl)phenyl]acetyl]amino]-N-[1-(trifluoromethyl)cyclopropyl]pyridine-2-carboxamide]	–	244	46	–
CC(C)(CO)c1cc(F)c(CC(=O)Nc2ccnc(C(=O)NC3(C#N)CCOCC3)c2)cc1O [Example 12, N-(4-Cyanotetrahydropyran-4-yl)-4-[[2-[2-fluoro-5-hydroxy-4-(2-hydroxy-1,1-dimethyl-ethyl)phenyl]acetyl]amino]pyridine-2-carboxamide]	–	150	118	–
